Here are results for 1 compound from paper PMC6923382, “Small molecules that inhibit TNF signalling by stabilising an asymmetric form of the trimer” (Nature Communications, 2019).

Structures are written as SMILES. “Also recorded” adds a separate entry of the source.

Assay [1] concerns TNFR1 extracellular domain and control proteins. The assay can be described thus: Biacore SPR binding to control surfaces. The note with it: capture antibody plus TNFR1, capture antibody. From the text:
(§1) BIA (Biomolecular Interaction Analysis) uses SPR to measure the binding of compounds to a protein immobilised on a chip surface. For this purpose a Biacore A100/4000 (GE Healthcare) was used. A CM5 sensor was immobilised via amine coupling on flow cell 1 with human Fc antibody domain (10k response units; kRU) and TNFR-Fc captured (2.5 kRU), flow cell 2 TNF (11 kRU), flow cell 3 was left blank (for non-specific binding), flow cell 4 TNFR-Fc (10 kRU), and flow cell 5 goat anti-human Fc 16 kRU). The sensor surface was then equilibrated in HBS-P (10 mM HEPES pH 7.4, 0.15 M NaCl, 0.005% Surfactant P20, BIAcore, GE Healthcare) with 5% DMSO for at least 5 h. Compounds were diluted from 100 mM stocks into DMSO matched buffer and then flowed over the immobilised flow cells at a concentration of 250 µM at the maximum flow rate of 30 μL/min. Background subtraction binding curves were analysed using the Biacore A100 BIA evaluation software version 1.1 following standard procedures.

The target of assay [2] is T1, TNF (Homo sapiens, UniProt P01375). The assay can be described thus: Biacore kinetics of binding. Also on record: Human TNF (CID2043, UniProt P01375 residues 77–233); 6XHis-Smt3 (N, cleaved yes); host or cells: E. coli TOP10. The note with it: SPR, multicycle, Biacore T100. On the procedure: Surface plasmon resonance using a Biacore T100/T200 was used to measure the association rate constant (ka), the dissociation rate constant (kd) and the affinity (KD) of compounds. TNF (VCID 2043 Beryllium) was immobilised to approximately 5 kRU as described above and equilibrated for at least 5 h in HBS P + buffer with 5% DMSO. UCB-6876 was serially diluted from 187.5 µM, flowing over the immobilised TNF at 50 µL/min for 3 min before allowing full dissociation under flow for at least 6 min. […] […] The compounds were allowed to dissociate for 2 h under flow.
Target sequence in this assay (P01375 77-233): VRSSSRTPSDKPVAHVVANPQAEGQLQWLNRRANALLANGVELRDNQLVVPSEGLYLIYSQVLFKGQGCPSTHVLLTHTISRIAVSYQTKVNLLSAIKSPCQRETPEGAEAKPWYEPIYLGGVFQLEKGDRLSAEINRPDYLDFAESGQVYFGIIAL

Assay [3] concerns the target T1, TNF. The assay can be described thus: Mass spectrometry monomer exchange. In kind it is biochemical. The note with it: human TNF pre-incubated with compound, mixed 1:1 with mouse TNF. Also on record: stabilise an asymmetrical form of the soluble TNF trimer. On the procedure: Mouse and human TNF protein were made up to a concentration of 2 mg/mL (20 mM ammonium acetate, pH 7.4) and desalted and buffer-exchanged using Zeba columns. The protein was then diluted to 20 μM in ammonium acetate buffer. An aliquot of each was mixed 1:1 and analysed at various time points. Human TNF was incubated (1:1, v/v) with compound (20 μΜ), 4% DMSO in 20 mM ammonium acetate) and mixed with mouse TNF (1:1) and tested at various time points using an Advion Nanomate (for sample introduction by nanospray) and ThermoFisher Exactive Plus EMR Mass Spectrometer. The following settings were utilised on the mass spectrometer: scan range 1000 to 8000 m/z; spray voltage 1.5 kV; capillary temperature 150 °C; S-lens RF 200; source DC offset 25 V, injection flatapole 7 V; inter flatapole 6 V; bent flatapole DC 6 V; EMR mode on. Data were processed using ThermoFisher Protein Deconvolution 3.0.
Target sequence in this assay (P01375 77-233 limits assumed): as the sequence (P01375 77-233) above

Assay [4] addresses T1, TNF. The assay can be described thus: Biacore binding with and without non-ionic detergent. Details: stabilise an asymmetrical form of the soluble TNF trimer. As to conditions: 0.01% v/v Triton X-100 and 0.025% v/v Tween-80; Biacore T200. On the procedure:
Experiments to show any effect of addition of non-ionic detergent were performed on a Biacore, with human TNF on the solid phase and compounds in solution phase in the presence and absence of 0.01% v/v Triton X-100 and 0.025% v/v Tween-80.
Three Biacore T200s were treated with sodium hypochlorite to remove any traces of detergent. Each machine was equilibrated in either HBS with no detergent (control), HBS:
Tween-P80 (0.025% v/v) or HBS: Triton X-100 (0.01% v/v). Human TNF was tethered to ~ 2000 RU before equilibration in the equivalent control or detergent buffers plus 1% DMSO. […]
were fitted to a BIAevaluation T200 1:1 algorithm and the fitted data shown. […]
Target sequence in this assay (P01375 77-233 limits assumed): as the sequence (P01375 77-233) above

Assay [5] addresses T1, TNF. The assay can be described thus: Biacore SPR fragment binding to immobilised TNF. Details: Human TNF (CID2043, UniProt P01375 residues 77–233); 6XHis-Smt3 (N, cleaved yes); host or cells: E. coli TOP10. As to conditions: SPR fragment screen; concentration-dependent response.
Source text: as §1
Target sequence in this assay (P01375 77-233): as above

On to `Cc1ccc(C)c(Cn2c(CO)nc3ccccc32)c1` [UCB-6876], for which the “binding to TNFR1 and control proteins (selectivity)” value in assay [1] is “selectivity over the TNFR1 extracellular domain and control proteins; also recorded: not to control proteins”. The Kd at TNF [2] (read-out: KD (kd/ka)) came out at 22 µM. Besides, the kon on TNF [2] (read-out: association rate constant ka) was 923 M⁻¹ s⁻¹. Besides, the koff at TNF [2] (read-out: dissociation rate constant kd) came out at 0.02 s⁻¹. The “exchange of mouse and human TNF monomers” value at TNF [3] is “blocks the exchange of mouse and human monomers”. Moreover, at TNF [4], the “effect of non-ionic detergents on binding to human TNF” value is “does not alter the binding”. Moreover, the “binding to immobilised TNF” value at TNF [5] is reported as “bound to TNF; also recorded: specifically binds to immobilised TNF”.
